Molecular target: T1, Ba/F3 cell EGFR Exon20 ins NPH (Homo sapiens, UniProt P00533, INS773NPH)
T1 construct: expressed in transfected cells; host or cells: Ba/F3
Test: Ba/F3 cell proliferation suppression, EGFR Exon20 ins NPH
Assay type: cell-based
Conditions: GI50 class; Ba/F3 cell line with NPH inserted at Exon20 of EGFR; 72 hours
How it was run: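 Cells (3000–5000/well) plated 24 h before compound, 12-point 3-fold dilutions at 0.3 nM to 50 um final; Ba/F3 lines grown with 5 ng/ml IL-3. Viability by CellTiter-Glo luminescence after 72 h, growth ratio vs control, GI50 from curves; triplicate.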

Compound | Ba/F3 (NPH) Activity
C=CC(=O)Nc1cc(Nc2cc(N3OCC[C@@H]3c3ccc(Cl)cc3)ncn2)c(OC)cc1N1CCC(N2CC[C@H](N(C)C)C2)CC1 [compound 784, N-(5-((6-((R)-3-(4-chlorophenyl)isoxazolidine-2-yl)pyrimidine-4-yl)amino)-2-(4-((S)-3-(dimethylamino)pyrolidine-1-yl)piperidine-1-yl)-4-methoxyphenyl) acrylamide] | A (GI50 < 50 nM)
C=CC(=O)Nc1cc(Nc2cc(N3OCC[C@@H]3c3cc(F)cc(Cl)c3)ncn2)c(OC)cc1N1CCN(C)CC1 [compound 537, N-(5-((6-((R)-3-(3-chloro-5-fluorophenyl)isoxazolidine-2-yl)pyrimidine-4-yl)amino)-4-methoxy-2-(4-methylpiperazine-1-yl)phenyl)acrylamide] | A (GI50 < 50 nM)
C=CC(=O)Nc1cc(Nc2cc(N3OCC[C@@H]3c3cccc(Cl)c3Cl)ncn2)c(OC)cc1N1CCC(N2CCN(C(C)=O)CC2)CC1 [compound 608, N-(2-(4-(4-acetylpiperazine-1-yl)piperidine-1-yl)-5-((6-((R)-3-(2,3-dichlorophenyl)isoxazolidine-2-yl)pyrimidine-4-yl)amino)-4-methoxyphenyl) acrylamide] | A (GI50 < 50 nM)
C=CC(=O)Nc1cc(Nc2cc(N3OCC[C@@H]3c3cc(F)cc(F)c3)ncn2)c(OC)cc1N1CCC(N2CCOC[C@@H]2C)CC1 [compound 843, N-(5-((6-((R)-3-(3,5-difluorophenyl)isoxazolidine-2-yl)pyrimidine-4-yl)amino)-4-methoxy-2-(4-((S)-3-methylmorpholino)piperidine-1-yl)phenyl) acrylamide] | A (GI50 < 50 nM)
C=CC(=O)Nc1cc(Nc2cc(N3OCC[C@@H]3c3cc(F)ccc3F)ncn2)c(OC)cc1N1CCC(N2CC[C@H](N(C)C)C2)CC1 [compound 816, N-(5-((6-((R)-3-(2,5-difluorophenyl)isoxazolidine-2-yl)pyrimidine-4-yl)amino)-2-(4-((S)-3-(dimethylamino)pyrolidine-1-yl)piperidine-1-yl)-4-methoxyphenyl) acrylamide] | A (GI50 < 50 nM)
C=CC(=O)Nc1cc(Nc2cc(N3OCC[C@@H]3c3cccc(Cl)c3F)ncn2)c(OC)cc1N1CCC(N2CCN(CC3CC3)CC2)CC1 [Example 96, N-(5-((6-((R)-3-(3-chloro-2-fluorophenyl)isoxazolidine-2-yl)pyrimidine-4-yl)amino)-2-(4-(4-(cyclopropylmethyl)piperazine-1-yl)piperidine-1-yl)-4-methoxyphenyl) acrylamide] | A (GI50 < 50 nM)
C=CC(=O)Nc1cc(Nc2cc(N3OCC[C@@H]3c3cccc4ccccc34)ncn2)c(OC)cc1N1CCC(N2C[C@@H](C)O[C@@H](C)C2)CC1 [compound 491, N-(2-(4-((2S,6R)-2,6-dimethylmorpholino)piperidine-1-yl)-4-methoxy-5-((6-((R)-3-(naphthalene-1-yl)isoxazolidine-2-yl)pyrimidine-4-yl)amino)phenyl)acrylamide] | B (50 nM ≤ GI50 < 500 nM)
C=CC(=O)Nc1cc(Nc2cc(N3OCC[C@@H]3c3cccc(OC)c3)ncn2)c(OC)cc1N1CCC(N(C)C)CC1 [compound 731] | B (50 nM ≤ GI50 < 500 nM)
C=CC(=O)Nc1cc(Nc2cc(N3OCC[C@@H]3c3ccccc3)ncn2)c(OC)cc1N1CCC(N2CCN(C(C)C)CC2)CC1 [Example 283, N-(2-(4-(4-isopropylpiperazine-1-yl)piperidine-1-yl)-4-methoxy-5-((6-((R)-3-phenylisoxazolidine-2-yl)pyrimidine-4-yl)amino)phenyl) acrylamide] | A (GI50 < 50 nM)
C=CC(=O)Nc1cc(Nc2cc(N3OCC[C@@H]3c3cc(F)cc(F)c3)ncn2)c(OC)cc1N1CCC(N2CCC3(CC2)CC3)CC1 [compound 700, N-(2-(4-(6-azaspiro[2.5]octan-6-yl)piperidine-1-yl)-5-((6-((R)-3-(3,5-difluorophenyl)isoxazolidine-2-yl)pyrimidine-4-yl)amino)-4-methoxyphenyl) acrylamide] | A (GI50 < 50 nM)
N-(5-((6-((R)-3-(4- chloro-3-fluorophenyl) isoxazolidine-2-yl) pyrimidine-4-yl)amino)- 4-methoxy-2-((R)-3- morpholinopyrolidine- 1-yl)phenyl)acrylamide [compound 419] | A (GI50 < 50 nM)
C=CC(=O)Nc1cc(Nc2cc(N3OCC[C@@H]3c3cccc(Cl)c3F)ncn2)c(OC)cc1N(C)CCN(C)C [compound 746, N-(5-((6-((R)-3-(3-chloro-2-fluorophenyl)isoxazolidine-2-yl)pyrimidine-4-yl)amino)-2-((2-(dimethylamino)ethyl)(methyl)amino)-4-methoxyphenyl) acrylamide] | A (GI50 < 50 nM)
C=CC(=O)Nc1cc(Nc2cc(N3OCC[C@@H]3c3cccs3)ncn2)c(OC)cc1N(C)CCN(C)C [compound 928, N-(2-((2-(dimethylamino)ethyl) (methyl)amino)-4-methoxy-5-((6-((R)-3-(thiophene-2-yl)isoxazolidine-2-yl)pyrimidine-4-yl)amino)phenyl)acrylamide] | A (GI50 < 50 nM)
C=CC(=O)Nc1cc(Nc2cc(N3OCC[C@@H]3c3ccc(F)cc3F)ncn2)c(OC)cc1N1CCOCC1 [compound 325, N-(5-((6-((R)-3-(2,4-difluorophenyl)isoxazolidine-2-yl)pyrimidine-4-yl)amino)-4-methoxy-2-morpholinophenyl) acrylamide] | A (GI50 < 50 nM)
C=CC(=O)Nc1cc(Nc2cc(N3OCC[C@@H]3c3ccc(Cl)c(Cl)c3)ncn2)c(OC)cc1N1CCN(C2CCN(C)CC2)CC1 [compound 685, N-(5-((6-((R)-3-(3,4-dichlorophenyl)isoxazolidine-2-yl)pyrimidine-4-yl)amino)-4-methoxy-2-(4-(1-methylpiperidine-4-yl)piperazine-1-yl)phenyl) acrylamide] | A (GI50 < 50 nM)
C=CC(=O)Nc1cc(Nc2cc(N3OCC[C@@H]3c3ccc(Cl)c(Cl)c3F)ncn2)c(OC)cc1N1CCC(N2CCN(C3COC3)CC2)CC1 [Example 84, N-(5-((6-((R)-3-(3,4-dichloro-2-fluorophenyl)isoxazolidine-2-yl)pyrimidine-4-yl)amino)-4-methoxy-2-(4-(4-(oxetane-3-yl)piperazine-1-yl)piperidine-1-yl)phenyl)acrylamide] | B (50 nM ≤ GI50 < 500 nM)
C=CC(=O)Nc1cc(Nc2cc(N3OCC[C@@H]3c3cc(F)cc(F)c3)ncn2)c(OC)cc1N1CCC(N2C[C@@H]3C[C@H]2CN3C)CC1 [Example 260, N-(5-((6-((R)-3-(3,5-difluorophenyl)isoxazolidine-2-yl)pyrimidine-4-yl)amino)-4-methoxy-2-(4-((1S,4S)-5-methyl-2,5-diazabicyclo[2.2.1]heptane-2-yl)piperidine-1-yl)phenyl)acrylamide] | A (GI50 < 50 nM)
C=CC(=O)Nc1cc(Nc2cc(N3OCC[C@@H]3c3cccc(Cl)c3)ncn2)c(OC)cc1N1CCC(N2CCC(N(C)C)CC2)CC1 [compound 414, N-(5-((6-((R)-3-(3-chlorophenyl)isoxazolidine-2-yl)pyrimidine-4-yl)amino)-2-(4-(dimethylamino)-[1,4'-bipiperidine]-1'-yl)-4-methoxyphenyl) acrylamide] | A (GI50 < 50 nM)
C=CC(=O)Nc1cc(Nc2cc(N3OCC[C@@H]3c3cc(F)cc(F)c3)ncn2)c(OC)cc1N1C[C@@H]2CCN(C)[C@@H]2C1 [compound 891, N-(5-((6-((R)-3-(3,5-difluorophenyl)isoxazolidine-2-yl)pyrimidine-4-yl)amino)-4-methoxy-2-((3aS,6aS)-1-methylhexahydropyrrolo [3,4-b]pyrrole-5(1H)-yl)phenyl) acrylamide] | A (GI50 < 50 nM)
C=CC(=O)Nc1cc(Nc2cc(N3OCC[C@@H]3c3ccc(Cl)c(Cl)c3)ncn2)c(OC)cc1N(C)CCN(C)C [compound 669, N-(5-((6-((R)-3-(3,4-dichlorophenyl)isoxazolidine-2-yl)pyrimidine-4-yl)amino)-2-((2-(dimethylamino)ethyl)(methyl)amino)-4-methoxyphenyl) acrylamide] | A (GI50 < 50 nM)
C=CC(=O)Nc1cc(Nc2cc(N3OCC[C@@H]3c3cc(F)cc(F)c3)ncn2)c(OC)cc1N1CCC(N2CCO[C@H](C)C2)CC1 [compound 758, N-(5-((6-((R)-3-(3,5-difluorophenyl)isoxazolidine-2-yl)pyrimidine-4-yl)amino)-4-methoxy-2-(4-((R)-2-methylmorpholino)piperidine-1-yl)phenyl) acrylamide] | B (50 nM ≤ GI50 < 500 nM)
C=CC(=O)Nc1cc(Nc2cc(N3OCC[C@@H]3c3cccc(Cl)c3)ncn2)c(OC)cc1N1CCN(C(C)=O)CC1 [compound 464, N-(2-(4-acetylpiperazine-1-yl)-5-((6-((R)-3-(3-chlorophenyl)isoxazolidine-2-yl)pyrimidine-4-yl)amino)-4-methoxyphenyl) acrylamide] | A (GI50 < 50 nM)
C=CC(=O)Nc1cc(Nc2cc(N3OCC[C@@H]3c3ccc(Cl)c(Cl)c3)ncn2)c(OC)cc1N1CCN(C2CC2)CC1 [compound 673, N-(2-(4-cyclopropylpiperazine-1-yl)-5-((6-((R)-3-(3,4-dichlorophenyl)isoxazolidine-2-yl)pyrimidine-4-yl)amino)-4-methoxyphenyl) acrylamide] | A (GI50 < 50 nM)
C=CC(=O)Nc1cc(Nc2cc(N3OCC[C@@H]3c3cccc(C(F)(F)F)c3)ncn2)c(OC)cc1N1CCN(CC)CC1 [compound 452, N-(2-(4-ethylpiperazine-1-yl)-4-methoxy-5-((6-((R)-3-(3-(trifluoromethyl)phenyl)isoxazolidine-2-yl)pyrimidine-4-yl)amino)phenyl) acrylamide] | A (GI50 < 50 nM)

— patent US12157730B2, “Heteroaryl derivative, method for producing same, and pharmaceutical composition comprising same as effective component” (VORONOI INC., priority 2019, dated 2024)
